Measurements as given in patent publication US9487489B2, “Halogen-substituted pyrazole derivatives as pest-control agents” (BAYER CROPSCIENCE AKTIENGESELLSCHAFT, priority 2013, dated 2016).

How the values were obtained:
[1] = system: larvae of the mustard beetle (Phaedon cochleariae); experiment: Phaedon cochleariae spray test (PHAECO); assay type: in vivo; conditions: Chinese cabbage leaf discs, after 7 days
Procedure, shortened: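 Kill of mustard beetle larvae is read as % mortality 7 days after spraying. Spray liquid: active compound in acetone plus dimethylformamide, brought up with water holding 1000 ppm alkylaryl polyglycol ether emulsifier and diluted further in emulsifier-water.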

[2] = system: caterpillars of the armyworm (Spodoptera frugiperda); experiment: Spodoptera frugiperda spray test (SPODFR); assay type: in vivo; conditions: maize leaf discs, after 7 days
Procedure, shortened: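 Percent kill read at day 7 on caterpillar-infested maize leaf discs. Discs were first sprayed with aqueous emulsifier-containing (1000 ppm) preparations made from acetone/dimethylformamide solutions, and dried. Scale: 0% none dead, 100% all dead.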

[3] = logP determination by HPLC on a reversed-phase column (C18), EEC Directive 79/831 Annex V.A8; assay type: physicochemical; conditions: HPLC on reversed-phase column (C18), acetonitrile/water with formic acid, EEC Directive 79/831 Annex V.A8
Procedure, shortened: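 Per EEC 79/831 Annex V.A8, values derive from HPLC retention at 2.0 ml/min and 55° C on a 50*4.6 C18 column. The 10→95% acetonitrile gradient (0.1%/0.09% formic acid) lasted 4.25 min plus a 1.25 min hold; mass detection was by MSD.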

[4] = system: greenhouse red spider mite (Tetranychus urticae); experiment: Tetranychus urticae spray test, OP-resistant (TETRUR); assay type: in vivo; conditions: bean leaf discs, after 6 days
Procedure, shortened: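 Percent kill, scored 6 days post-spray (0% = none dead, 100% = all dead), on Phaseolus vulgaris leaf discs infested with every life stage of the OP-resistant spider mite. Compound dissolved in acetone plus DMF, diluted to test concentration with emulsifier-containing water (1000 ppm).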

[5] = system: green peach aphid (Myzus persicae); experiment: Myzus persicae spray test (MYZUPE); assay type: in vivo; conditions: Chinese cabbage leaf discs, after 6 days
Experimental: G. Myzus persicae-spray Test (MYZUPE)
Solvents: 78 parts by weight of acetone
• 1.5 parts by weight of dimethylformamide Emulsifier: alkylaryl polyglycol ether
To produce a suitable preparation of active compound, 1 part by weight of active compound is dissolved using the stated parts by weight of solvent and made up with water comprising an emulsifier concentration of 1000 ppm until the desired concentration is reached. To produce further test concentrations, the preparation is diluted with emulsifier-containing water.
Discs of Chinese cabbage leaves (Brassica pekinensis) infested by all stages of the green peach aphid (Myzus persicae) are sprayed with an active compound preparation of the desired concentration.
After 6 days, the efficacy in % is determined 100% here means that all of the aphids have been killed; 0% means that no aphids have been killed.

[6] = system: adult cat fleas (Ctenocephalides felis); experiment: Ctenocephalides felis in vitro contact test with adult cat fleas (T1); conditions: after 48 h
Procedure, shortened: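 Adult cat fleas (Ctenocephalides felis), 5-10 per tube, were exposed to the inner surface of 25 ml test tubes coated with compound in acetone. Tubes were incubated lying flat under ambient conditions. Efficacy was then read by standing tubes upright and knocking the fleas to the floor. Fleas that stayed motionless or moved uncoordinatedly counted as dead or moribund, where 100% means all fleas dead or moribund and 0% means none harmed.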

[7] = system: adult houseflies (Musca domestica); experiment: Musca domestica test (MUSCDO); assay type: in vivo; conditions: application rate 100 ppm; after 2 days
Experimental: F. Musca domestica Test (MUSCDO)
Solvent: dimethyl sulphoxide
To produce a suitable preparation of active compound, 10 mg of active compound are mixed with 0.5 ml of dimethyl sulphoxide, and the concentrate is diluted with water to the desired concentration.
Vessels containing a sponge treated with sugar solution and the active compound preparation of the desired concentration are populated with 10 adult houseflies (Musca domestica).
After 2 days, the kill in % is determined. 100% means that all of the flies have been killed; 0% means that none of the flies have been killed.

[8] = system: adult cat fleas (Ctenocephalides felis); experiment: Ctenocephalides felis oral test (CTECFE); assay type: in vivo; conditions: application rate 100 ppm in citrated cattle blood; after 2 days
Procedure, shortened: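 Mortality read at 2 days as percent of fleas killed. Compound predissolved in DMSO, diluted into citrated cattle blood and offered to roughly 20 unfed adult C. felis via parafilm membrane feeder.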

[9] = system: engorged adult female cattle ticks (Boophilus microplus); experiment: Boophilus microplus injection test (BOOPMI Inj); assay type: in vivo; conditions: application rate 20 μg/animal; injection into abdomen; assessed after 7 days
Procedure, shortened: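 Efficacy is read at 7 days as fertile egg laying (100% = no fertile eggs laid; 0% = all eggs fertile), with eggs of unclear fertility stored until larvae hatch at about 42 days. Five engorged adult females per dose each receive an abdominal injection of 1 μl compound dissolved in DMSO.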

[10] = system: L1 larvae of the Australian sheep blowfly (Lucilia cuprina); experiment: Lucilia cuprina test (LUCICU); assay type: in vivo; conditions: application rate 100 ppm; after 2 days
Procedure, shortened: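 Percent mortality read at 2 days; 100% = all larvae killed, 0% = none. Test compound, predissolved in DMSO and water-diluted to the wanted level, was mixed into minced horsemeat holding roughly 20 first-instar larvae.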

[11] = system: adult dog ticks (Rhipicephalus sanguineus); experiment: Rhipicephalus sanguineus in vitro contact test with adult brown dog ticks (T2); conditions: after 48 h
Procedure, shortened: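 Acetone solutions coated onto test tube walls and floor, giving 5 μg/cm^2 at 900 ppm. Five to ten adult ticks held per tube in the dark at room temperature for 48 h, then heated at 45-50° C for up to 5 min; efficacy is the percentage of dead or moribund ticks unable to climb away.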

| SMILES | efficacy in % ([1]; application rate 100 g/ha) [%] | efficacy in % ([2]; application rate 100 g/ha) [%] | logP [3] | efficacy in % ([4]; application rate 100 g/ha) [%] | efficacy in % ([5]; application rate 100 g/ha) [%] | efficacy in % ([1]; application rate 500 g/ha) [%] | efficacy in % ([2]; application rate 500 g/ha) [%] | efficacy in % ([4]; application rate 500 g/ha) [%] | efficacy in % ([5]; application rate 500 g/ha) [%] | further results |
| --- | --- | --- | --- | --- | --- | --- | --- | --- | --- | --- |
| CON=Cc1ccc(-c2cnn(-c3c(C(F)(F)F)c(C(F)(F)C(F)(F)F)nn3C)c2)cc1C(=O)NC1CC1 (mixture of isomers) [Ic-118] | 100 | 100 | 3.99 | 100 | 100 | – | – | – | – | efficacy (dead or moribund fleas) ([6]; application rate 1 μg/cm^2): 100%; efficacy (dead or moribund fleas) ([6]; application rate 5 μg/cm^2): 100% |
| Cn1nc(C(F)(F)C(F)(F)F)c(C(F)(F)F)c1-n1cc(-c2cccc(C(=O)NC3(C#N)CC3)c2F)cn1 [Ic-40] | – | – | – | – | – | 100 | 100 | 100 | 100 | efficacy (kill in %) [7]: 100%; efficacy (kill in %) [8]: 100%; efficacy (laying of fertile eggs) [9]: 100%; efficacy (kill in %) [10]: 100% |
| CSC1CC(NC(=O)c2cc(-c3cnn(-c4c(C(F)(F)F)c(C(F)(F)C(F)(F)F)nn4C)c3)ccc2Cl)C1 (centres unmarked) [Ic-108] | 100 | 83 | 4.28 | 100 | 90 | – | – | – | – | efficacy (dead or moribund ticks) ([11]; application rate 5 μg/cm^2): 80%; efficacy (dead or moribund fleas) ([6]; application rate 1 μg/cm^2): 100%; efficacy (dead or moribund fleas) ([6]; application rate 5 μg/cm^2): 100% |
| Cn1nc(C(F)(F)C(F)(F)F)c(C(F)(F)F)c1-n1cc(-c2ccc(Cl)c(C(=O)NC3C[S+]([O-])C3)c2)cn1 (centres unmarked) [Ic-116] | – | – | 3.03 | – | – | 100 | 100 | 100 | 90 | – |
| Cn1nc(C(F)(F)C(F)(F)F)c(C(F)(F)F)c1-n1cc(-c2ccc(Cl)c(C(=O)NC3CS(=O)(=O)C3)c2)cn1 [Ic-117] | – | – | 3.37 | – | – | 100 | 100 | 100 | 90 | – |
| Cn1nc(C(F)(F)C(F)(F)F)c(C(F)(F)F)c1-n1cc(-c2ccc(Cl)c(C(=O)NC3CC(S(C)(=O)=O)C3)c2)cn1 (centres unmarked) [Ic-122] | 100 | 100 | 3.24 | 100 | 90 | – | – | – | – | – |
| Cn1nc(C(F)(F)F)c(C(F)(F)F)c1-n1cc(-c2ccc(Cl)c(C(=O)NC3CC3)c2)cn1 [Ic-126] | 100 | 100 | 3.42 | 100 | 100 | – | – | – | – | – |
| Cn1nc(C(F)(F)F)c(C(F)(F)F)c1-n1cc(-c2ccc(Cl)c(C(=O)NC3(C#N)CC3)c2)cn1 [Ic-127] | 100 | 100 | 3.3 | 100 | 100 | – | – | – | – | – |
| Cc1ccc(-c2cnn(-c3c(C(F)(F)F)c(C(F)(F)C(F)(F)F)nn3C)c2)cc1C(=O)NC1(C#N)CC1 [Ic-129] | 100 | 100 | 3.73 | 100 | 90 | – | – | – | – | – |
| Cn1nc(C(F)(F)C(F)(F)F)c(C(F)(F)F)c1-n1cc(-c2ccc(Cl)c(C(=S)NC3CC3)c2)cn1 [Ic-132] | 100 | 100 | 4.34 | 100 | 90 | – | – | – | – | – |
| Cn1nc(C(F)(F)F)c(C(F)F)c1-n1cc(-c2ccc(Cl)c(C(=O)NC3CC3)c2)cn1 [Ic-133] | 100 | 100 | 3.01 | 100 | 100 | – | – | – | – | – |
| Cn1nc(C(F)(F)C(F)(F)F)c(C(F)(F)F)c1-n1cc(-c2ccc(Cl)c(C(=O)NC3CCCC3)c2)cn1 [Ic-141] | – | – | – | – | – | 100 | 100 | 100 | 100 | efficacy (dead or moribund ticks) ([11]; application rate 1 μg/cm^2): 80%; efficacy (dead or moribund ticks) ([11]; application rate 5 μg/cm^2): 100%; efficacy (dead or moribund fleas) ([6]; application rate 1 μg/cm^2): 100%; efficacy (dead or moribund fleas) ([6]; application rate 5 μg/cm^2): 100% |
| CSCCNC(=O)c1cc(-c2cnn(-c3c(C(F)(F)F)c(C(F)(F)C(F)(F)F)nn3C)c2)ccc1Cl [Ic-167] | – | – | – | – | – | 100 | 100 | 100 | 90 | efficacy (dead or moribund ticks) ([11]; application rate 1 μg/cm^2): 100%; efficacy (dead or moribund ticks) ([11]; application rate 5 μg/cm^2): 100%; efficacy (dead or moribund fleas) ([6]; application rate 1 μg/cm^2): 100%; efficacy (dead or moribund fleas) ([6]; application rate 5 μg/cm^2): 100% |
| CCO[C@@H]1C[C@H]1NC(=O)c1cc(-c2cnn(-c3c(C(F)(F)F)c(C(F)(F)C(F)(F)F)nn3C)c2)ccc1Cl [Ic-180] | – | – | 3.99 | – | – | 100 | 100 | 100 | 90 | – |
| Cn1nc(C(F)(F)C(F)(F)F)c(C(F)(F)F)c1-n1cc(-c2ccc(Cl)c(C(=O)NC3CC3C(F)(F)F)c2)cn1 (centres unmarked) [Ic-181] | – | – | 4.26 | – | – | 100 | 100 | 100 | 100 | – |
| CSc1ccc(-c2cnn(-c3c(C(F)(F)F)c(C(F)(F)C(F)(F)F)nn3C)c2)cc1C(=O)NC1CC1 [Ic-182] | 100 | 100 | 3.81 | 90 | 100 | – | – | – | – | – |
| CCN(CC)S(=O)(=O)c1ccc(-c2cnn(-c3c(C(F)(F)F)c(C(F)(F)C(F)(F)F)nn3C)c2)cc1C(=O)NC1CC1 [Ic-185] | 100 | 100 | 3.99 | 100 | 100 | – | – | – | – | – |
| CCOC1CC1NC(=O)c1cc(-c2cnn(-c3c(C(F)(F)F)c(C(F)(F)C(F)(F)F)nn3C)c2)ccc1Cl (centres unmarked) [Ic-186] | – | – | 3.73 | – | 90 | 100 | 100 | 90 | – | – |
| COC1(NC(=O)c2cc(-c3cnn(-c4c(C(F)(F)F)c(C(F)(F)C(F)(F)F)nn4C)c3)ccc2Cl)CC1 [Ic-187] | – | – | 3.83 | – | – | 100 | 100 | 100 | 90 | – |
| Cn1nc(C(F)(F)C(F)(F)F)c(C(F)(F)F)c1-n1cc(-c2ccc(Cl)c(C(=O)NC3(C4CC4)CC3)c2)cn1 [Ic-188] | – | – | 4.43 | – | – | 100 | 100 | 100 | 100 | – |
| Cn1nc(C(F)(F)C(F)(F)F)c(C(F)(F)F)c1-n1cc(-c2ccc(S(C)(=O)=O)c(C(=O)NC3CC3)c2)cn1 [Ic-190] | 100 | 100 | 3.35 | 100 | 100 | – | – | – | – | – |
